This note sets out measurements from ChEMBL document CHEMBL5724558, “Image-based profiling of drug vulnerabilities in CRC organoids” (2024).

Where “and” joins values, the source holds several entries; their conditions need not be identical. Equal values may be shown once. Square brackets hold non-standard residues; d marks the D form. Peptide text beside a SMILES is read from it. Arg(Me) = CNC(=N)NCCC[C@H](N)C(=O)O; d3Pal = N[C@H](Cc1cccnc1)C(=O)O; azaGly = NNC(=O)O

Common to all, as to type: functional, Homo sapiens
Common to all, as to set-up: dose or concentration left out as unconfirmed

Assay [1] deals with Colon cancer organoid. Put plainly: Image-based profiling of donated chemical probes and chemogenomic kinase set in O09 CRC organoid. Image analysis is performed on the sum area metric, and the data were normalized to the DMSO control. After imaging the organoid viability is measured using the OneGloEX Luciferase Assay System. The normalized viability data and sum area are reported.

In assay [2] the test system is Colon cancer organoid. Briefly: Image-based profiling of donated chemical probes and chemogenomic kinase set in O21 CRC organoid. Image analysis is performed on the sum area metric, and the data were normalized to the DMSO control. After imaging the organoid viability is measured using the OneGloEX Luciferase Assay System. The normalized viability data and sum area are reported.

Assay [3] has as its system Colon cancer organoid. Briefly: Image-based profiling of donated chemical probes and chemogenomic kinase set in O06 CRC organoid. Image analysis is performed on the sum area metric, and the data were normalized to the DMSO control. After imaging the organoid viability is measured using the OneGloEX Luciferase Assay System. The normalized viability data and sum area are reported.

For `CNc1nc(-c2ccc3c(N)n[nH]c3c2)cc(N2C[C@@H](C(=O)NC3CCCCC3)CC[C@H]2C)n1`, the “Cell Viability” value was 19.6659% and 24.7593% in assay [1] (Replication number 1); 39.1039% and 41.4354% in assay [1] (Replication number 2); 64.6112% and 105.857% in assay [2] (Replication number 1); 53.2272% and 96.363% in assay [2] (Replication number 2); 59.7664% and 83.0769% in assay [3] (Replication number 1); 75.2742% and 90.8217% in assay [3] (Replication number 2).
As for `C[C@H]1CCCN1Cc1nc2cc(NC(=O)c3ccc4cnccc4c3)ccc2[nH]1`, the “Cell Viability” value in assay [1] (Replication number 1) is 74.8227% and 68.6244%; in assay [1] (Replication number 2) it was 83.8481% and 67.5641%; in assay [2] (Replication number 1) it was 78.6097% and 94.644%; in assay [2] (Replication number 2), 77.6333% and 81.0859%; in assay [3] (Replication number 1), 103.275% and 86.0134%; in assay [3] (Replication number 2) it was 127.654% and 99.8938%.
For `COc1cc(C#N)ccc1S(=O)(=O)Nc1ccc2c(c1)cc(C)c(=O)n2C`, the “Cell Viability” value in assay [1] (Replication number 1) is 120.569% and 113.833%; in assay [1] (Replication number 2), 161.546% and 95.5021%; in assay [2] (Replication number 1) it was 105.091% and 139.321%; in assay [2] (Replication number 2), 90.295% and 90.2148%; in assay [3] (Replication number 1), 109.695% and 120.805%; in assay [3] (Replication number 2), 114.995% and 99.8938%.
On to `Cc1cc(C)cc([C@H]2c3cc(C)ccc3NC(=O)CN2C(=O)c2ccc(Br)s2)c1`, for which the “Cell Viability” value in assay [1] (Replication number 1) was 143.943% and 101.546%; in assay [1] (Replication number 2), 157.398% and 102.629%; in assay [2] (Replication number 1), 126.442% and 119.334%; in assay [2] (Replication number 2), 102.791% and 105.788%; in assay [3] (Replication number 1), 159.149% and 112.832%; in assay [3] (Replication number 2), 176.911% and 106.346%.
As for `Cc1ccc2nc(NCCN)c3ncc(C)n3c2c1.O=C(O)C(F)(F)F.O=C(O)C(F)(F)F`, the “Cell Viability” value in assay [1] (Replication number 1) was 111% and 93.003%; in assay [1] (Replication number 2), 101.477% and 77.7459%; in assay [2] (Replication number 1) it was 135.691% and 125.993%; in assay [2] (Replication number 2), 139.56% and 141.634%; in assay [3] (Replication number 1), 119.625% and 106.83%; in assay [3] (Replication number 2), 110.324% and 90.8997%.
With `CNC(=O)c1ccc(Nc2ncc(C(F)(F)F)c(NCc3nccnc3N(C)S(C)(=O)=O)n2)cc1` [DEFACTINIB], the “Cell Viability” value was 29.7376% and 36.5543% in assay [1] (Replication number 1); 24.312% and 22.1979% in assay [1] (Replication number 2); 89.1869% and 86.74% in assay [2] (Replication number 1); 98.5669% and 117.347% in assay [2] (Replication number 2); 124.45% and 120.141% in assay [3] (Replication number 1); 102.609% and 90.0207% in assay [3] (Replication number 2).
Turning to `CC1=C(C#N)C(c2ccc3c(c2)c(NC(=O)c2ccccc2C)nn3C)C(C#N)=C(C)N1` [BAY-974], the “Cell Viability” value in assay [1] (Replication number 1) was 82.726% and 84.3377%; in assay [1] (Replication number 2) it was 101.367% and 119.752%; in assay [2] (Replication number 1), 90.5008% and 96.0543%; in assay [2] (Replication number 2), 89.8417% and 122.959%; in assay [3] (Replication number 1) it was 84.6822% and 93.2084%; in assay [3] (Replication number 2), 111.085% and 112.763%.
As for `CC(C)Oc1ccc(-c2c[nH]cc2CN(C)CCN)cc1`, the “Cell Viability” value in assay [1] (Replication number 1) is 64.4727% and 62.1329%; in assay [1] (Replication number 2), 85.7978% and 86.9496%; in assay [2] (Replication number 1) it was 91.7863% and 65.8393%; in assay [2] (Replication number 2) it was 93.2232% and 70.8831%; in assay [3] (Replication number 1) it was 21.9267% and 37.2081%; in assay [3] (Replication number 2), 18.5621% and 35.8471%.
`CCOC(=O)CCNc1cc(N2CCc3ccccc3CC2)nc(-c2ccccn2)n1`: the “Cell Viability” value in assay [1] (Replication number 1) is 78.8625% and 87.8671%; in assay [1] (Replication number 2), 139.531% and 105.195%; in assay [2] (Replication number 1), 97.5264% and 129.915%; in assay [2] (Replication number 2) it was 84.038% and 100.955%; in assay [3] (Replication number 1), 148.439% and 134.336%; in assay [3] (Replication number 2), 153.418% and 113.038%.
For the molecule `CNC(=O)Nc1ccc(-c2nc(N3CC4CCC(C3)O4)c3cnn(C4CCC5(CC4)OCCO5)c3n2)cc1`, the “Cell Viability” value is 16.963% and 8.004% in assay [1] (Replication number 1); 13.8845% and 13.3086% in assay [1] (Replication number 2); 32.2778% and 51.8467% in assay [2] (Replication number 1); 33.537% and 47.4991% in assay [2] (Replication number 2); 5.405% and 12.6193% in assay [3] (Replication number 1); 4.979% and 10.7558% in assay [3] (Replication number 2).
Turning to `CC1=C(C)C(=O)C(C(C)(C)CC(=O)N(CCCCSC[C@H]2O[C@@H](n3cnc4c(N)ncnc43)[C@H](O)[C@@H]2O)Cc2cccc(-c3ccc(Cl)cc3)c2)=C(C)C1=O`, the “Cell Viability” value was 154.166% and 104.56% in assay [1] (Replication number 1); 134.087% and 102.344% in assay [1] (Replication number 2); 85.391% and 116.982% in assay [2] (Replication number 1); 82.6503% and 80.5489% in assay [2] (Replication number 2); 167.397% and 142.309% in assay [3] (Replication number 1); 129.695% and 107.541% in assay [3] (Replication number 2).
Turning to `COc1ccccc1C(=O)Nc1cc2c(cc1N1CCNCC1C)n(C)c(=O)n2C` (stereo unspecified), the “Cell Viability” value in assay [1] (Replication number 1) is 86.1318% and 106.414%; in assay [1] (Replication number 2), 94.809% and 101.774%; in assay [2] (Replication number 1) it was 113.606% and 138.145%; in assay [2] (Replication number 2) it was 93.8896% and 107.936%; in assay [3] (Replication number 1), 207.592% and 157.772%; in assay [3] (Replication number 2) it was 161.771% and 130.961%.
Consider `COc1cc2c(NC3CCN(C(C)C)CC3)nc(N3CCC(F)(F)CC3)nc2cc1OCCCN1CCCC1`, for which the “Cell Viability” value in assay [1] (Replication number 1) was 87.3897% and 128.439%; in assay [1] (Replication number 2) it was 117.725% and 126.861%; in assay [2] (Replication number 1), 89.3609% and 142.848%; in assay [2] (Replication number 2), 55.1916% and 97.1957%; in assay [3] (Replication number 1), 71.9409% and 120.564%; in assay [3] (Replication number 2) it was 77.7589% and 98.4599%.
As for `CNC(=N)NCCC[C@H](NC(=O)[C@H](CC(C)C)NC(=O)NNC(=O)[C@H](Cc1ccccc1)NC(=O)[C@H](CO)NC(=O)[C@H](CC(N)=O)NC(=O)[C@@H](Cc1cccnc1)NC(=O)[C@H](N)Cc1ccc(O)cc1)C(=O)NCC(N)=O` [KISS1-543] (H-[dY][d3Pal]NSF[azaGly]L[Arg(Me)]G-NH2), the “Cell Viability” value in assay [1] (Replication number 1) is 107.101% and 81.2318%; in assay [1] (Replication number 2), 83.0393% and 106.024%; in assay [2] (Replication number 1) it was 119.966% and 118.758%; in assay [2] (Replication number 2) it was 94.392% and 98.4694%; in assay [3] (Replication number 1) it was 118.716% and 117.33%; in assay [3] (Replication number 2), 90.7753% and 88.3624%.
With `CCOC(=O)Nc1cc(-c2ccc(C)c(NS(C)(=O)=O)c2)nn2c(C)nnc12`, the “Cell Viability” value was 56.4078% and 39.4127% in assay [1] (Replication number 1); 74.2439% and 53.3101% in assay [1] (Replication number 2); 101.464% and 109.34% in assay [2] (Replication number 1); 124.525% and 131.026% in assay [2] (Replication number 2); 97.2241% and 83.1141% in assay [3] (Replication number 1); 52.6014% and 56.6383% in assay [3] (Replication number 2).
`CC(C)(O)c1cncc(-c2nc3ccc(F)cc3n2C2CC2)c1` [MSD-CYP11B2]: the “Cell Viability” value was 85.3446% and 107.103% in assay [1] (Replication number 1); 121.971% and 103.489% in assay [1] (Replication number 2); 108.022% and 122.772% in assay [2] (Replication number 1); 100.134% and 120.326% in assay [2] (Replication number 2); 79.0545% and 113.441% in assay [3] (Replication number 1); 106.294% and 130.706% in assay [3] (Replication number 2).
